Assays:
[1] = Solubility and mixing of protectors in the base pharmaceutical composition; conditions: for Solubility in the base pharmaceutical composition: 0.95% w/w Fluralaner in Transcutol V and Tween 80 25:75
Protocol: To the base of a pharmaceutical composition as described herein, comprising isoxazoline, solvent, and surfactant, different compounds were added as protectors to prevent breakdown of isoxazoline when diluted in water with a water sanitizer such as hypochlorite.
Where the protector amount was zero, this sample served as unprotected control sample. The Fluralaner level was determined using UHPLC. The alpha-tocopherol used was alpha-tocopherol EP (Fluka).
For samples containing a protector, Fluralaner was added to a mixture of Transcutol V, Tween 80 and protector, and then mixed to dissolve.

[2] = Prevention of degradation by oxidizing sanitizer (hypochlorite) in medicated drinking water; format: physicochemical; conditions: for Colour during incubation in sanitized water: a few days into the incubation
Protocol: The Fluralaner level was determined using UHPLC. The alpha-tocopherol used was alpha-tocopherol EP (Fluka).
To prepare the test samples, the required amounts of Transcutol and Tween were measured, combined in a beaker at room temperature, and mixed magnetically. Next, when no protector was added, the required amount of Fluralaner was weighed, added, and mixed until complete dissolution, which usually required about 10 minutes, at 70% speed. […] The complete dissolution was verified visually. Next the density of the resulting solution was checked with a Densimeter, at 20° C.
To test the capacity of the different protectors to prevent degradation of Fluralaner in medicated drinking water by an oxidising sanitizer, samples of the pharmaceutical composition as prepared above were diluted to different concentrations, and incubated with different amounts of hypochlorite. Concentrations of Fluralaner in medicated drinking water used were: 1, 5, and 10 μg/ml.
The hypochlorite used was from a 13% sodium hypochlorite solution (Acros Organics), which was prepared into samples with a concentration of hypochlorite of: 0, 0.5, 2, 5, or 10 ppm, wherein 1 ppm equals 20 μM. Samples without hypochlorite served as positive controls. While the dilutions of hypochlorite were made in purified water, one additional sample at 5 ppm hypochlorite was prepared in standard tap water (Angers, France). Control samples were tested at day zero, all others were tested after an incubation for 7 days at 40° C./75% RH.
The concentration of protector in the test sample was dependent of the dilution factor of the concentrated Fluralaner composition applied: 1:10,000, 1:2000, or 1:1000, respectively.

[3] = Accelerated stability testing of pharmaceutical composition comprising a protector; format: physicochemical; conditions: for Appearance of the pharmaceutical composition with protector on storage: stability results up to 4 months, tests terminated
Protocol: Similar to the experiments described in Example 3 above, where the effect of water quality on Fluralaner-containing medicated drinking water was tested; here samples of the pharmaceutical composition were tested for an effect of the addition of a protector, on their stability during prolonged storage.
To test the long term stability of the pharmaceutical composition with a protector, some samples were stored under conditions of accelerated ageing. Samples of the pharmaceutical composition with or without one of the protectors, were filled out in portions of 7 gram each, in 10 ml glass vials, sealed with rubber stoppers, and stored under different conditions: 2-8° C.; 30° C./65% RH; 40° C./75% RH, and 50° C. […]

| Compound | Solubility in the base pharmaceutical composition [1] | Colour during incubation in sanitized water [2] | Appearance of the pharmaceutical composition with protector on storage [3] | also measured |
| --- | --- | --- | --- | --- |
| COc1ccc(O)c(C(C)(C)C)c1 [BHA, butylated hydroxyanisole] | soluble | colour change did develop | discoloration | – |
| Cc1cc(C(C)(C)C)c(O)c(C(C)(C)C)c1 [BHT, butylated hydroxytoluene] | soluble | colour change did develop | discoloration | – |
| O=S([O-])[O-].[Na+].[Na+] [Na-sulphite, Sodium sulphite] | not soluble | – | – | – |
| Cc1c(C)c2c(c(C)c1O)CC[C@@](C)(CCC[C@H](C)CCC[C@H](C)CCCC(C)C)O2 [alpha-tocopherol] | – | – | – | Protection of Fluralaner from degradation in sanitized drinking water ([2]; Fluralaner 1 μg/ml and 10 ppm hypochlorite, 7 days): could not protect; Protection of Fluralaner from degradation in sanitized drinking water ([2]; Fluralaner at 5 or 10 μg/ml, up to 7 days, 40° C., up to 10 ppm hypochlorite): completely protect; Stability of pharmaceutical composition, interaction by protector ([3]; stability data up to 18 months): lack of interaction; Level of alpha-tocopherol in pharmaceutical composition on storage ([3]; up to 8 months, 2-8° C., 30° C./65% RH, 40° C./75% RH, 50° C.): no significant reduction |

Further lines, with some results ahead:

| Solubility in the base pharmaceutical composition [1] | Compound | Colour during incubation in sanitized water [2] | Appearance of the pharmaceutical composition with protector on storage [3] | also measured |
| --- | --- | --- | --- | --- |
| soluble | CCCCCCCCCCCCOC(=O)c1cc(O)c(O)c(O)c1 [Lauryl gallate, dodecyl gallate] | – | – | Appearance after mixing in the base pharmaceutical composition [1]: orange coloration; Appearance of the pharmaceutical composition with protector ([3]; shortly after preparation): orange coloration appeared |
| not soluble | O=S([O-])S(=O)(=O)[O-].[Na+].[Na+] [Na-metabisulfite, Sodium metabisulfite] | – | – | – |

— patent publication US11179372B2, “Isoxazoline solution containing vitamin E for use with sanitized drinking water” (Intervet Inc., priority 2015, dated 2021)
